{
  "source": "patent US6159932A",
  "about": "“Endoparasiticidal compositions” (Bayer Aktiengesellschaft, priority 1995, dated 2000)",
  "key": {"[1]": {"test_system": "hookworm Uncinaria stenocephala", "conditions": "500 μg/kg, dogs; cited from earlier work"}, "hookworm and whipworm": {"test_system": "hookworm and whipworm", "conditions": "human medicine, high dosage on several days in succession; cited from earlier work"}, "Nematospiroides dubius": {"test_system": "Nematospiroides dubius", "experiment": "In vivo nematode test, Nematospiroides dubius in the mouse", "conditions": "oral", "method": "Nematospiroides dubius in the Mouse\nMice are infected experimentally with nematodes of the species Nematospiroides dubius. For infection, the mice are administered orally with Nematospiroides dubius as 60 filariform larvae.\nAfter the prepatency period has expired, the suspended active substances are administered orally on day 12 after infection.\n(§1) Determination of the Activity\nThe mice are selected on day 20 after infection. The adult parasites in the Duodenum are counted by means of a compressor. The success of treatment in the dose group is made relative to the untreated control group."}, "Heterakis spumosa": {"test_system": "Heterakis spumosa", "experiment": "In vivo nematode test, Heterakis spumosa in the mouse", "conditions": "oral", "method": "Heterakis spumosa in the Mouse\nMice are infected experimentally with nematodes of the species Heterakis spumosa. For infection, the mice are administered orally with Heterakis spumosa as 90 embryonate eggs.\nAfter the prepatency period has expired, the suspended active substances are administered orally on day 46 after infection.\nas §1\nThe mice are selected on day 54 after infection. The adult parasites are counted in the colon and caecum using a microscope. The success of treatment in the dose group is made relative to the untreated control group."}, "Ancylostoma caninum": {"test_system": "Ancylostoma caninum", "experiment": "In-vivo nematode test, Ancylostoma caninum in dogs", "conditions": "oral", "method": "Ancylostoma caninum in dogs\nBeagle puppies were experimentally infested with hookworms (Ancylostoma caninum). Amount of infestation material were 250 L3 larvae.\nAfter the prepatent period, when mature worms are present within the gastrointestinal tract, the dogs were orally treated with the test compounds as pure active in gelatine capsules.\nDetermination of the Efficacy was Carried Out According to the Following Two Methods\n1. Counts of worm eggs within the dogs faces before and after treatment.\n2. Percent efficacy at a critical test calculated using the formula: [formula]"}, "[2]": {"conditions": "ivermectin B1a/B1b 0.1 mg/kg alone"}},
  "data": [
    {"compound": "Milbemycin", "values": [
      {"measurement": "action against the hookworm Uncinaria stenocephala", "setting": "[1]", "value": "distinct weakness in its action"}
    ]},
    {"compound": "22,23-dihydroavermectins B1a /B1b [Ivermectin B1a /B1b]", "values": [
      {"measurement": "efficacy in hookworm and whipworm infected patients", "setting": "hookworm and whipworm", "value": "ineffective"},
      {"measurement": "Reduction rate", "setting": "Nematospiroides dubius; [2]", "value": 0, "unit": "%"},
      {"measurement": "Reduction rate", "setting": "Heterakis spumosa; [2]", "value": "< 50", "unit": "%"},
      {"measurement": "Reduction rate", "setting": "Ancylostoma caninum; ivermectin B1a/B1b 0,01 mg/kg alone", "value": 100, "unit": "%"},
      {"measurement": "Reduction rate", "setting": "Ancylostoma caninum; ivermectin B1a/B1b 0,001 mg/kg alone", "value": 0, "unit": "%"}
    ]},
    {"compound": "CC(C)C[C@H]1C(=O)O[C@H](Cc2ccccc2)C(=O)N(C)[C@@H](CC(C)C)C(=O)O[C@H](C)C(=O)N(C)[C@@H](CC(C)C)C(=O)O[C@H](Cc2ccccc2)C(=O)N(C)[C@@H](CC(C)C)C(=O)O[C@H](C)C(=O)N1C", "note": "[PF 1022 A]", "values": [
      {"measurement": "Reduction rate", "setting": "Nematospiroides dubius; PF 1022 A 25.0 mg/kg alone", "value": 0, "unit": "%"},
      {"measurement": "Reduction rate", "setting": "Nematospiroides dubius; PF 1022 A 50.0 mg/kg alone", "value": 0, "unit": "%"},
      {"measurement": "Reduction rate", "setting": "Heterakis spumosa; PF 1022 A 5.0 mg/kg alone", "value": 0, "unit": "%"},
      {"measurement": "Reduction rate", "setting": "Heterakis spumosa; PF 1022 A 10.0 mg/kg alone", "value": 0, "unit": "%"},
      {"measurement": "Reduction rate", "setting": "Heterakis spumosa; PF 1022 A 25.0 mg/kg alone", "value": 0, "unit": "%"},
      {"measurement": "Reduction rate", "setting": "Heterakis spumosa; PF 1022 A 50.0 mg/kg alone", "value": 0, "unit": "%"},
      {"measurement": "Reduction rate", "setting": "Ancylostoma caninum; PF 1022 A 0,5 mg/kg alone", "value": 0, "unit": "%"},
      {"measurement": "Reduction rate", "setting": "Ancylostoma caninum; PF 1022 A 1,0 mg/kg alone", "value": 100, "unit": "%"}
    ]}
  ]
}
